# From paper PMC10505102 (Cellular and Molecular Life Sciences: CMLS, 2023)
# Where a SMILES comes first, the peptide text is derived from it. Bridges are numbered along the chain shown (N, C = ends).
# Assays:
# [1] = test system: C2C12 myotubes, 3T3-L1 adipocytes, and HEPG2 cells; test: Glucose uptake with Akt inhibitor GSK690693; assay type: cell-based; conditions: 2.5 µM GSK690693 1 h; 20 µM aM1 24 h pretreated or 100 nM insulin 30 min
# Protocol: (§1) The relative glucose uptake in each group is expressed as fold-change relative to the respective PBS-treated control groups.
# (§2) Akt activation-mediated signaling was inhibited using the Akt-inhibitor GSK690693. Hydroxy-2-naphthalenylmethylphosphonic acid (HNMPA) was used to block insulin receptor activation. […] PBS was used for mock-treated groups. All experiments had at least three independent replicates.
# (§3) Assays were performed in triplicate.
# [2] = test system: C2C12-myotubes, 3T3-L1-adipocytes, and HEPG2 cells; test: Glucose uptake with insulin receptor inhibitor HNMPA; assay type: cell-based; conditions: 100 µM HNMPA 1 h; 100 nM insulin 30 min
# Protocol: as §1, §2, §3
# [3] = test system: 3T3-L1 cells; conditions: 3T3-L1, aM1 up to 100 µM, 24 h, n=3
# Protocol: (§4) The MTT-containing culture medium was aspirated, and the formazan crystals were dissolved in DMSO for colorimetric quantification at 570 nm using a microplate reader (Tecan Magellan™, Switzerland) with a reference wavelength of 630 nm. DMSO was used as vehicle control, and 1% Triton X-100 was used as a cytotoxicity-inducing agent (positive control). Experimental triplicates were used for statistical analyses. […]
# (§5) including an alkaline environment (ammonium bicarbonate buffer, pH 8) with trypsin (A) and chymotrypsin (B) and simulated gastric fluid (0.1N HCl, pH 1.2) with pepsin f or 4h at 37°C (C) and respective buffers were used as vehicle controls. Peptide quantif ication was perf ormed using RP-HPLC, and data are shown as mean (± SD), calculated from experimental triplicates.
# (§6) 48h, and intact peptides were quantif ied using RP-HPLC. PBS was used as vehicle control.
# (§7) Data are presented as mean (± SD), calculated from individual experimental triplicates. E) […]
# (§8) Triton X 100 (TX -100) was used as a positive control f or cell death. (n=3, unpaired multiple t- […]
# (§9) F) LDH release-based cytotoxicity and plasma membrane damaging analysis of […]
# (§10) (n=3, unpaired multiple t-test with Holm-
# [4] = test system: C2C12 cells; conditions: C2C12, aM1 up to 100 µM, 24 h, n=3
# Protocol: as §4, §5, §6, §7, §8, §9, §10
# [5] = test system: HEPG2 cells; conditions: HEPG2, aM1 up to 100 µM, 24 h, n=3
# Protocol: as §4, §5, §6, §7, §8, §9, §10
# [6] = test system: mammalian cells; conditions: aM1 up to 100 µM, 24 h, n=3
# Protocol: DMSO was used as the vehicle control. […]
# as §5, §6, §7, §8, §9, §10
# [7] = test system: CHO-K1 cells; conditions: concentrations up to 200 µM; cited from earlier work
# [8] = test system: insulin-resistant 3T3-L1-adipocytes; test: 2-NBDG glucose uptake, fluorometric; assay type: cell-based, mouse; conditions: 20 µM aM1 or pioglitazone 24 h, 100 nM insulin 30 min
# Protocol: 3T3-L1 cells were maintained in growth medium (high-glucose DMEM [Dulbecco's modified Eagle's medium; Gibco], 10% FBS (fetal bovine serum; Gibco) and 1% penicillin/streptomycin (Gibco)]). Confluent 3T3-L1 fibroblast cells were then incubated with MDI induction medium (1 μM dexamethasone, 0.5 mM IBMX (isobutylmethylxanthine), and 100 nM insulin in high-glucose DMEM containing 10% FBS. At 2 days post-confluence and 2 days after exposure to the MDI induction medium, the medium was replaced with 100 nM insulin containing high-glucose DMEM supplemented with 10% FBS. Thereafter, the medium was replaced with a growth medium every 2 days to maintain the cells in culture. Cells were maintained in a 100 nM insulin-containing growth medium for the insulin-resistant phenotype. Differentiation was confirmed with Oil Red to visualize lipid droplets (Fig. S13C). […]
# Glucose uptake was measured using 2-NBDG, a fluorescently labeled deoxyglucose analog. […] Fluorometric quantification was performed using a microplate reader (Tecan Magellan™, Switzerland) with excitation and emission wavelengths of 467 nm and 542 nm, respectively. Protein content was measured with a BCA protein assay to normalize fluorometric results. […] Images were captured using the green fluorescence channel of a Nikon ECLIPSE Ti-S inverted microscope system (Nikon, Kanagawa, Japan). […]
# [9] = test system: GLUT4; test: GLUT4 translocation assay (Myc-GLUT4-mCherry C2C12); assay type: cell-based, mouse; conditions: 20 μM aM1 24 h; 100 nM insulin 30 min
# From the text: In skeletal muscles and adipocytes, insulin-induced glucose uptake is predominantly mediated by GLUT4 glucose transporters. […] We determined GLUT4-mediated glucose uptake using a stable C2C12 cell line expressing Myc-GLUT4-mCherry fusion protein that has a Myc epitope attached to the first N-terminal exofacial loop in GLUT4 and a mCherry fusion at the GLUT4 C terminus that allows detection of membrane-embedded GLUT4 under nonpermeabilized conditions (Fig. S6D).
# The GLUT4 translocation assay was adapted from a published protocol. The pEGFP-myc-GLUT4-mCherry recombinant construct for GLUT4 fusion protein was generated using the pLenti-myc-GLUT4-mCherry plasmid (Addgene plasmid #64049). C2C12 cells were transfected with the recombinant plasmid using a Lipofectamine 3000 Transfection Kit (Thermo Scientific, USA). Stably transfected cells were selected and grown for further assays. […] The positive control group was treated with 100 nM insulin for 30 min, and the mock control was treated with PBS. After treatment, the culture medium was aspirated, and the cells were washed three times with PBS. Nonpermeabilized cells were immediately fixed with 10% formalin for 30 min, washed, and blocked with 1% BSA for 1 h at RT. After blocking, the cells were incubated with Alexa Fluor 488-conjugated c-Myc antibodies overnight at 4 °C. […]
# [10] = test system: PI3K/Akt signaling in wild-type C2C12 myotubes; test: Western blot of PI3K/Akt signaling; conditions: WT C2C12 myotubes; aM1 24 h; insulin 30 min
# Protocol: C–D Data in each group were normalized with respect to GAPDH expression and stated as fold-change relative to PBS control cells for WT C2C12-myotubes (panel C) and IR C2C12-myotubes (panel D).
# (§11) Each protein sample (30 µg) was resolved on a 10% acrylamide gel and transferred onto a PVDF membrane. Immunoblotting was performed using anti-protein antibodies and detected with an ECL system.
# [11] = test system: PI3K/Akt signaling in wild-type 3T3-L1 adipocytes; test: Western blot of PI3K/Akt signaling; conditions: WT 3T3-L1 adipocytes
# Protocol: as §11
# Data in each g roup were normalized and expressed as a fold of PBS-
# treated respective control cells. Each bar represents mean ± SD ( n=3, analysis of variance
# (ANOVA) with Tukey's multiple comparisons test). *p<0.05 versus PBS-control groups and
# #p<0.05 versus INS-treated groups.
# [12] = test system: C2C12 cells; test: Glucose consumption assay (colorimetric); conditions: C2C12, 1 h; 20 µM aM1 (24 h pretreated) or 100 nM insulin; glucose assay kit, n = 3
# Protocol: Glucose consumption was estimated by depleting glucose levels of the growth medium using a glucose assay kit. […] Relative glucose uptake was measured in wild-type (top) and insulin-resistant (bottom) C2C12-myotubes and 3T3-L1-adipocytes using a 2NBDG uptake assay to estimate the glucose consumption of cells treated with the respective compounds.
# Glucose consumption was estimated by measuring the depletion of glucose levels in the growth medium over time. Glucose quantification was carried out using a glucose assay kit (Sigma, USA). […] After glucose introduction, glucose levels in the culture medium at 0 and 60 min were estimated colorimetrically at an absorbance wavelength of 570 nm. The protein content of each well was measured with a BCA protein assay to normalize glucose uptake results. Statistical significance was calculated based on three individual assays.
# [13] = test system: IRS1/2 in insulin-resistant C2C12 myotubes; test: Western blot of IRS1/2 level and IRS1 phosphorylation; conditions: IR myotubes; insulin 30 min, with or without aM1 24 h pretreatment
# Protocol: A Western blots showing the relative protein levels of IRS1/2 in insulin-resistant (IR.) C2C12-myotubes. […] B IRS1/2 gene expression analyzed by RT-qPCR under respective experimental conditions. Data for each group were normalized and represented the fold change relative to the PBS control group. […] Western blots of IRS1 at S318 (C) and S1101 D phosphorylation levels.
# as §11
# [14] = test system: Akt in insulin-resistant-C2C12 myotubes; test: Western blot of insulin-mediated Akt phosphorylation after aM1 pretreatment; conditions: IR myotubes, no aM1 pretreatment
# From the text: A Relative insulin sensitivity in insulin-resistant (IR) myotubes and adipocytes. […] Glucose uptake of cells after insulin stimulation was quantified using a 2NBDG assay to estimate relative insulin sensitivity, which is expressed as the mean value (± SD) of three independent experimental replicates (analysis of variance (ANOVA) with Sidak's multiple comparisons test). *p < 0.05 compared to PBS control and ^#p < 0.05 compared to INS control. […] GAPDH served as a loading control. […] E RT-qPCR analysis of normal proximal insulin signaling genes in IR myotubes. […] Data are expressed as mean ± SEM (n = 4, ANOVA with Sidak's multiple comparisons test). *p < 0.05 versus control groups
# as §11
compound,measurement,setting,value
CCn1c(-c2nonc2N)nc2c(C#CC(C)(C)O)ncc(OC[C@H]3CCCNC3)c21 [GSK690693],insulin- and aM1-mediated glucose uptake on co-treatment with GSK690693,[1],inhibited
"O=P(O)(O)C(O)c1ccc2ccccc2c1 (stereo not drawn) [HNMPA, hydroxy-2-naphthalenylmethylphosphonic acid]",insulin-mediated glucose uptake on HNMPA treatment,[2],completely blocked
"CC[C@H](C)[C@H](NC(=O)[C@@H]1CSSC[C@@H]2NC(=O)[C@@H]3CCCN3C(=O)[C@@H]3CCCN3C(=O)[C@H](C(C)C)NC(=O)[C@H](CCC(=O)O)NC(=O)[C@H](Cc3ccccc3)NC(=O)[C@@H]3CCCN3C(=O)[C@H](CO)NC(=O)[C@@H]3CSSC[C@H](NC(=O)[C@H](CCCNC(=N)N)NC(=O)[C@H](CSSC[C@H](NC(=O)[C@H](CC(=O)O)NC(=O)[C@@H](N)C(C)C)C(=O)N[C@@H](CO)C(=O)NCC(=O)N[C@@H](C)C(=O)N3)NC(=O)[C@H](CC(=O)O)NC(=O)[C@H](CCCNC(=N)N)NC(=O)[C@H](CO)NC(=O)CNC2=O)C(=O)N[C@@H]([C@@H](C)CC)C(=O)N2CCC[C@H]2C(=O)N[C@@H]([C@@H](C)CC)C(=O)NCC(=O)N[C@@H](CC(C)C)C(=O)N[C@@H](C(C)C)C(=O)N[C@@H](C(C)C)C(=O)NCC(=O)N[C@@H](Cc2ccccc2)C(=O)N1)C(=O)N[C@@H](Cc1ccc(O)cc1)C(=O)N1CCC[C@H]1C(=O)N[C@H](C(=O)NCC(=O)O)[C@@H](C)O [aM1] (H-VDCSGACSPFEVPPCGSRDCRCIPIGLVVGFCIYPTG-OH; disulfide 3-20, 7-22, 15-32)",cell viability (MTT),[3],No substantial changes in cell viability
same,cell viability (MTT),[4],No substantial changes in cell viability
same,cell viability (MTT),[5],No substantial changes in cell viability
same,LDH release (membranolytic or cytotoxic effects),[6],no significant membranolytic or cytotoxic effects
same,toxicity to CHO-K1 cells,[7],no toxicity
CCc1ccc(CCOc2ccc(CC3SC(=O)NC3=O)cc2)nc1 (stereo not drawn) [pioglitazone],increase in glucose uptake relative to untreated cells,[8],1.6 fold
insulin,increase in glucose uptake relative to untreated cells,[8],remained at basal levels
same,"surface GLUT4 (anti-Myc fluorescence, nonpermeabilized cells) vs PBS control",[9],increased amounts of GLUT4 at the cell surface
same,total Akt expression,[10],no significant differences
same,PDK1 phosphorylation at Ser242,[11],significant increase
same,total Akt expression,[11],no significant differences
same,"Akt phosphorylation at Ser473, increase relative to untreated cells",[11]; n=3,expected Akt phosphorylation was observed
same,"Akt phosphorylation at Thr308, increase relative to untreated cells",[11]; n=3,expected Akt phosphorylation was observed
same,increase in glucose consumption compared to untreated control cells,[12],similar
same,IRS1 phosphorylation at Ser318,[13],increased significantly
same,phosphorylated Akt levels after insulin stimulation alone,[14],remained at basal levels
